Paper PMC4666032, “KPT-330, a potent and selective exportin-1 (XPO-1) inhibitor, shows antitumor effects modulating the expression of cyclin D1 and survivin in prostate cancer models” (BMC Cancer, 2015)

Legend:
PC3 cells = assay: Western blot of nuclear proteins; assay type: cell-based, human; details: 100 nM, 2-12 hrs
Protocol: (§1) Cytoplasmic and nuclear protein extracts were obtained by using the Nuclear/Cytosol Fractionation Kit from Biovision Inc. (Milpitas, CA, USA). Cell extracts and conditioned media from treated and untreated cells were electrophoresed under reducing conditions and transferred to nitrocellulose filter (Schleicher and Schuell GmbH, Dassel, Germany). Non specific binding sites were blocked for 1 h in 5 % non-fat dried milk in a Tris buffer containing 20 mM Tris and 137 mM NaCl (pH 7.6). Blots were incubated with 1 μg/ml of primary antibody diluted in blocking solution for 1 h at room temperature, washed and then incubated for 1 h in secondary antibody diluted 1:3000 in blocking solution. Following an additional wash, reactive bands were visualized by a chemiluminescent detection kit (Supersignal, Perbio Science, Tattenhall, UK) using Bio-Rad gel Doc™ (Bio-Rad Laboratories S.r.l., Milan, Italy).
(§2) The molecular pathways that are induced by XPO-1 inhibition were evaluated by immunoblots, ELISA and immunocytochemical analyses performed in PC3, DU145 and 22rv1 as models of CRPC using 100 nM KPT-330 as reference compound. The effects were monitored in early and chronic treatments. […] In Fig. 3a, we show representative western blots for nuclear and cytoplasm expression of cyclin D1 and XPO-1 in PC3 cell extracts after 2–12 hr of treatment with KPT-330. […] In addition, prolonged treatment with KPT-330 determined a reduction of cyclin D1 protein expression in DU145 cell lines (Fig. 3c). Increased nuclear expression of FOXO3a is visible also by IHC (Fig. 3e) in 22rv1 cells treated with KPT-330. […] Therefore, the inhibition of XPO-1-mediated export machinery may enhance AR signaling (manuscript in preparation). […] Although proteasome inhibitors are considered for treatment of solid tumors, these compounds could reduce the effectiveness of selinexor, requiring further investigation.

22rv1 cells = assay: Western blot of nuclear proteins; assay type: cell-based, human; details: 100 nM
Protocol: as §1, §2

models of aggressive PCa = assay: In vivo models of aggressive PCa (xenograft not specified); parameters: species or system mice
Source text: Male CD1 nude mice (Charles River, Milan, Italy) were maintained under the guidelines established by the University of L’Aquila, Medical School and Science and Technology School Board Regulations. Experiments on animals have been approved by your local IRB in compliance with the Italian government regulation n.116 January 27, 1992 for the use of laboratory animals which is line with ARRIVE guidelines. All mice received subcutaneous flank injections of 1 x 10^6 PC3, DU145 or 22v1 cells. Tumor growth was measured bi-weekly with a Vernier caliper (length x width). Tumor weight was calculated according to the formula: TW (mg) = tumor volume (mm^3) = d2 x D/2, where d and D are the shortest and longest diameters, respectively. The effects of the treatments were examined as previously described. […]
Mice were treated by oral gavage with either vehicle control (Pluronic F-68/PVP-K29/32), KPT330 or KPT251. […] In vivo, combinational studies were evaluated by CalcuSyn (Biosoft). For the calculation of CI, the values of cell kill for a fixed tumor volume were considered (determined by the log cell kill (LCK)). LCK was determined as LCKZ (TKC)/(3.3KTd), where Td represents the mean control group doubling time required to reach a fixed tumor volume, expressed in days, whereas T and C are the same values as described above.

PC3, DU145 and 22rv1 = assay: Molecular changes by immunoblots, ELISA and immunocytochemistry; assay type: cell-based, human
Protocol: as §1, §2

SMILES: O=C(/C=C\n1cnc(-c2cc(C(F)(F)F)cc(C(F)(F)F)c2)n1)NNc1cnccn1 [KPT-330]
- nuclear FOXO, p21, p27, cyclin B1 (PC3 cells): nuclear accumulation
- total expression of AR, prolonged exposure (22rv1 cells; 22rv1 cells, prolonged exposure): significantly reduced
- nuclear expression of p53 and MDM2 (22rv1 cells; AR+/p53wt 22rv1 cells): increased
- nuclear expression of AR (22rv1 cells; AR+/p53wt 22rv1 cells, early): increased
- antitumor effects compared to KPT-251 (models of aggressive PCa; at similar dosage): better antitumor effects
- tumor volume relative to docetaxel-treated animals (models of aggressive PCa; internal control docetaxel, data not shown): approximately one-third
- cell cycle distribution (PC3, DU145 and 22rv1; 100 nM, 24, 48 and 72 hrs): accumulation of cells in the G1 cell cycle phase with loss of cells in the S and G2/M phase
- XPO-1 localization, early treatment (PC3, DU145 and 22rv1; 100 nM, early treatment): early XPO-1 nuclear accumulation
- cyclin D1 cytosolic levels (PC3, DU145 and 22rv1; 100 nM, early treatment): strongly reduced
- cyclin D1 nuclear expression (PC3, DU145 and 22rv1; 100 nM, early treatment): increased
- XPO-1 protein levels, prolonged treatment (PC3, DU145 and 22rv1; 100 nM, prolonged treatments): dramatically reduced
- nuclear export of survivin (PC3, DU145 and 22rv1; PCa cell lines, Western blots and ELISAs, 100 nM): reduced
